# In US7855310B2, “AH receptor antagonists” (SYMRISE GmbH & Co. KG, priority 2006, dated 2010):
# Key:
# [1] = Light stability test (solar simulator, HPLC quantification); assay type: physicochemical; conditions: wt. % based on sum E isomer + Z isomer; for Degradation after 2 h: solar simulator 40 W/m^2, 2 h; for Degradation after 4 h: solar simulator 40 W/m^2, 4 h
# Method: 20 μl of a 1-3 wt. % solution of each of the test compounds of formula (I) in a low-volatility solvent (e.g. isopropyl myristate, miglyol or glycerol) are distributed uniformly over microscope slides using a pipette. These loaded slides are then irradiated in a solar simulator with an intensity of 40 W/m^2 (for 2 h or 4 h in each case).
# When the irradiation has ended, the slides are each separately laid in a glass dish containing an organic solvent (methanol, isopropanol, etc.) and the organic substances present thereon are detached in an ultrasonic bath. The resulting solutions are each transferred to a 10 ml or 25 ml volumetric flask and made up to the calibration mark with solvent. Non-irradiated slides are treated likewise as references.
# The samples (contents of the respective volumetric flasks) are evaluated via HPLC quantification. These values are compared with the non-irradiated references and the degradation rate during irradiation is reported in [wt. %] per unit time, based on the sum [E isomer+Z isomer].
# [2] = target: T1, AhR (Homo sapiens, UniProt P35869); test: Fluorescence microscopy of GFP-coupled AhR translocation in HaCaT cells transfected with pEGFP-AhR; assay type: cell-based; conditions: in the presence and absence of UVB light
# T1 construct: endogenous in cells; host or cells: HaCaT keratinocytes
# T1 sequence (P35869 11-848): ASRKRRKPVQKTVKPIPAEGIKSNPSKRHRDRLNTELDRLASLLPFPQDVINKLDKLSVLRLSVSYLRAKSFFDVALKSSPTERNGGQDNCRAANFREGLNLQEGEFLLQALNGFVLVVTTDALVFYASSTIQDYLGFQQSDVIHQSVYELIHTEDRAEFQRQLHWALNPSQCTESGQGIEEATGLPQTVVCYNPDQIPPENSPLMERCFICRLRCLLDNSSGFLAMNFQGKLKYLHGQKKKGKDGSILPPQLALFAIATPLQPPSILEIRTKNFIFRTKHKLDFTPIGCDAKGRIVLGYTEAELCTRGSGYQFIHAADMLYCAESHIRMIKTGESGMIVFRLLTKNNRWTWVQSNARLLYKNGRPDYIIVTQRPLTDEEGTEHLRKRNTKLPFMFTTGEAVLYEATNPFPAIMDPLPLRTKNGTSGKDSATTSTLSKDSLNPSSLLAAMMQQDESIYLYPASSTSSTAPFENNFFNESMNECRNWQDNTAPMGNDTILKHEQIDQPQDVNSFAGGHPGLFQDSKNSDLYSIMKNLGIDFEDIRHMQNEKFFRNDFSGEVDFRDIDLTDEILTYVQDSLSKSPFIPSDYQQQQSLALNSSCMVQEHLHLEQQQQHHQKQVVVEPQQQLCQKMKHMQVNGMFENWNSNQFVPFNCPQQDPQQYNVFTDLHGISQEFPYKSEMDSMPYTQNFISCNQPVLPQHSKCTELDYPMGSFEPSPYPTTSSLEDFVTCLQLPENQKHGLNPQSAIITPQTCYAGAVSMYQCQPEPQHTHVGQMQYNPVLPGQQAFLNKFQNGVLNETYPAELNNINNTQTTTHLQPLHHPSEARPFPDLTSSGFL
# From the text: HaCaT keratinocytes were cultivated in DMEM containing 10% of foetal calf serum. The cells were irradiated with UVB in PBS (phosphate buffered saline). For irradiation with UVB we used a TL20W/12RS lamp, which contains four parallel tubes (Philips, Eindhoven, The Netherlands) and emits the bulk of its energy in the UVB range (290-320 nm). The emission peak of the lamp is at 310 nm. Control cells were subjected to the same treatment but were not irradiated. To inhibit the AhR, the cells were treated with the test substances 1 h prior to irradiation.
# HaCaT cells were plated out on compartmentalized microscope slides at a cell density of 5×10^4 cells/compartment. Some were pretreated for 1 h with the test substances. After 24 h these were transfected with plasmid pEGFP-AhR by means of the FuGene 6 transfection reagent (Roche, Mannheim, Germany) according to the manufacturer's instructions. After a further 24 h the transfected cells were irradiated with 100 J/m^2 of UVB. After 40 min the cells were fixed for 10 min with 4% paraformaldehyde and washed with PBS. The slides were dried and covered with Vectashield mounting medium (Vector Laboratories, Burlingame, Calif., USA). The GFP-coupled AhR was visualized by means of a fluorescence microscope (Olympus, Hamburg, Germany) and photographed with a ColorView XS digital camera (Olympus).
compound,measurement,setting,value
"CC1=C(/C=C/C(C)=C/C=C/C(C)=C/C(=O)O)C(C)(C)CCC1 [Vitamin A acid, reference compound]",Degradation after 2 h,[1],95%
same,Degradation after 4 h,[1],100%
COc1cc(-c2cc(=O)c3ccccc3o2)ccc1[N+](=O)[O-] [3-methoxy-4-nitroflavone],translocation of the AhR into the cell nucleus,[2],inhibited the translocation of the AhR into the cell nucleus
COc1ccc(/C=C2/C(=O)c3ccccc3C2(C)C)cc1OC [(Ib)],Degradation after 2 h,[1],4%
same,Degradation after 4 h,[1],15%
CCCCOc1cc2c(cc1C)C(=O)/C(=C/c1ccc(OC)cc1)C2(C)C [(Id)],Degradation after 2 h,[1],7%
same,Degradation after 4 h,[1],11%
COc1cc2c(cc1OC)C(C)(C)/C(=C\c1ccccc1)C2=O [Compound (Ia)],Degradation after 2 h,[1],7%
same,Degradation after 4 h,[1],7%
"Oc1ccc(C=Cc2cc(O)cc(O)c2)cc1 (mixture of isomers) [Resveratrol (E/Z mixture), 3,5,4′-trihydroxystilbene, reference compound]",Degradation after 2 h,[1],77%
same,Degradation after 4 h,[1],84%
